Data taken from paper doi:10.1101/2023.10.24.563163v2, “Targeting cancer with small molecule pan-KRAS degraders” (biorxiv, 2024).
pIC50: −log10 of the molar value. Like-named read-outs stand apart in the source and are kept apart here.

Assays:
[1] = molecular target: T1, KRAS^G12D (Homo sapiens, UniProt P01116, G12D); assay: cell-based; parameters: endogenous; KRAS degradation by capillary electrophoresis immunodetection; conditions: GP5d; read-out: Dmax 24 h GP5d [%]
Experimental: (§1) Protein Detection by Capillary Electrophoresis Cells (50 000) were seeded the day before treatment into 96-well clear-flat bottom plates and incubated overnight (37 °C, humidified tissue culture incubator, 5% CO2). Compounds were added from DMSO stock solution using a digital dispenser and cells are incubated at 37 °C as specified (24 hours for KRAS degradation, 6 hours for determination of pERK levels). At the end of the incubation, medium was removed, cells washed with ice cold PBS, PBS removed and 50 µL lysis buffer (Meso Scale Discovery #R60TX-2) supplemented with 1:100 protease inhibitor solution, 1:100 phosphatase inhibitor I, 1:100 phosphatase inhibitor II (Meso Scale Discovery #R70AA-1), 0.5 µL/mL Benzonase (Novagen #70664-3) and 10 mM dithiothreitol added to each well. Plates with lysis buffer were immediately transferred to -80 °C freezer for at least 2 hours and then thawed on ice. Lysates were transferred to a 96 well V-bottom plate and insoluble debris was pelleted by centrifugation for 20 min. at 4 000 rpm. 40 µL of the supernatant were transferred to a fresh Eppendorf PCR plate. Analysis of protein levels was conducted using the Wes System, ProteinSimple (https://www.bio-techne.com/) as specified by the manufacturer. Briefly, Wes Master Mix (12-230 kDa WES Separation Module, 8 × 25 capillary cartridges, ProteinSimple #SM-W004) and molecular weight markers were prepared as specified in the manufacturer’s recommendations. To detect primary antibodies, anti-rabbit (Protein Simple #DM-001) or anti-mouse (Protein Simple #DM-002) detection modules were used. 7.2 µL lysate + 1.8 µL master mix were combined and heated to 95 °C for 5 min.

[2] = molecular target: T1, KRAS^G12D; parameters: endogenous; KRAS degradation by capillary electrophoresis immunodetection; conditions: read-out: DC50 24 h GP2d
[3] = system: SW620; assay: cells; parameters: pERK levels by capillary electrophoresis; conditions: Homo sapiens, SW-620, 6 h
Experimental: as §1, with “5 min. Th” for “5 min.”

[4] = system: HEK293; assay: cells; parameters: pERK levels by capillary electrophoresis; conditions: Homo sapiens, HEK293, 6 h
Experimental: as §1, with “5 min. Th” for “5 min.”

[5] = molecular target: T2, KRAS^WT (Homo sapiens, UniProt P01116); assay: cell-based; parameters: KRAS degradation by capillary electrophoresis immunodetection
T2 construct: endogenous wild type
T2 sequence (P01116 whole entry): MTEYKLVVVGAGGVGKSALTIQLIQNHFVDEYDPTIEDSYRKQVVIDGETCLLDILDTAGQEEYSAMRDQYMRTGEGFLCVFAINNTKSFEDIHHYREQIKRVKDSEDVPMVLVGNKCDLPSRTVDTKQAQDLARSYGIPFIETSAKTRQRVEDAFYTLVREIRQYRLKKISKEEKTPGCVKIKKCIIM
Experimental: as §1, with “5 min. […] Next, we set out to test the ability of a single pan-KRAS degrading molecule, compound 4, to selectively suppress oncogenic signaling and proliferation in cancer cell lines driven by diverse KRAS mutants. To this end, we first confirmed degradation of KRAS by compound 4 in KRAS-dependent (GP2d, SW620 and NCI-H358 expressing KRAS^G12D, - G12V or -G12C, respectively) as well as in KRAS independent (A-375, HEK293) cell lines (Fig. 3A, fig. S4A). […] Both inhibition and degradation repressed the established markers of MAPK signaling pERK (fig. S4B-D) and DUSP6 (Fig. 3B, fig. S4E) in KRAS dependent cell lines. […] Neither degradation nor inhibition had appreciable antiproliferative effects in the KRAS independent cell lines A-375 and HEK293 (Fig. 3C, fig. S4F).” for “5 min.”

[6] = A-375, read-out: Dmax 24 h A375 [%]
[7] = HEK293, read-out: Dmax 24 h HEK293 [%]

T1 sequence (P01116 whole entry G12D): as the sequence (P01116 whole entry) above, with G12D counted along it

| Dmax [1] [%] | DC50 [2] [µM] | pIC50 [3] | Dmax [5, 6] [%] | Dmax [5, 7] [%] | SMILES | pIC50 [4] |
| --- | --- | --- | --- | --- | --- | --- |
| 99 | 0.0039 |  |  |  | Cc1ncsc1-c1ccc([C@H](CO)NC(=O)[C@@H]2C[C@@H](O)CN2C(=O)[C@H](C(C)C)n2cc(OCCCCN3CCCN(c4nccc(-c5noc([C@@]6(C)CCCc7sc(N)c(C#N)c76)n5)n4)[C@@H](C)C3)nn2)cc1 [compound 7, ACBI3] |  |
| 99 | 0.0763 | 6.15 | 76 | 48 | Cc1ncsc1-c1ccc(CNC(=O)[C@@H]2C[C@@H](O)CN2C(=O)[C@@H](NC(=O)CCCCCN2CCCN(c3nccc(-c4noc([C@@]5(C)CCCc6sc(N)c(C#N)c65)n4)n3)[C@@H](C)C2)C(C)(C)C)cc1 [compound 3] | < 6.00 |
| 100 | 0.0036 | 8.04 | 100 |  | Cc1ncsc1-c1ccc(CNC(=O)[C@@H]2C[C@@H](O)CN2C(=O)[C@@H](c2cc(OCCCCN3CCCN(c4nccc(-c5noc([C@@]6(C)CCCc7sc(N)c(C#N)c76)n5)n4)[C@@H](C)C3)no2)C(C)C)cc1 [compound 4] | < 6.00 |
| 100 |  |  |  |  | Cc1ncsc1-c1ccc(CNC(=O)[C@@H]2C[C@@H](O)CN2C(=O)[C@@H](NC(=O)COCCCN2CCCN(c3nccc(-c4noc([C@@]5(C)CCCc6sc(N)c(C#N)c65)n4)n3)[C@@H](C)C2)C(C)(C)C)cc1 [compound 2] |  |
|  |  | < 6.00 | < 15 | < 20 | Cc1ncsc1-c1ccc(CNC(=O)C2CC(O)CN2C(=O)C(c2cc(OCCCCN3CCCN(c4nccc(-c5noc(C6(C)CCCc7sc(N)c(C#N)c76)n5)n4)C(C)C3)no2)C(C)C)cc1 (stereo not drawn) [compound 5] | < 6.00 |
